Measured values published in the supplement of paper PMC11208160.

Assay: recombinant UMI read abundance after kanamycin selection (control-corrected) (log10(CPM+1)); higher = more efficient recombination; extreme values may be limits of the assay; sequences stand for … in AGTGCAGAGAAAATCGGCCAGTTTTCTCTGCCTGCAGTCCGCATGCCGTGGGACCCCTTGGGTTCTAACCTGTTGCCTAGATTTATGCAGCGGACTGCCTTTCTCCCAAAGTGATAAACCGG…AGGTTGGTTTCACT; site = the 11-nt donor
Summary of the method: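 Counts of recombinant UMIs were reported as log10(CPM+1). Before that, they were converted to CPM, averaged over replicates and scaled using control-derived factors. They came from PCR across the donor–target junction after Escherichia coli carrying the pair library and target plasmid was plated on IPTG (0.07 mM) plus kanamycin, or unselected, in two replicates each.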
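Also: IS621 bridge recombinase in Escherichia coli cells against a fixed T5 target plasmid.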

Sequence	recombinant UMI read abundance (log10)
CCCTTCTCATGGACCGGTTTTCCCGGTAATCCGTATTTGGG (site CCCTGCTCTCC)	0.0154
CCCTTCTCATGGACCGGTTTTCCCGGTAATCCGTATTTGGG (site CCCTTATCTCC)	0
CCCTTCTCATGGACCGGTTTTCCCGGTAATCCGTATTTGGG (site CCCTTCACTCC)	0.0149
CCCTTCTCATGGACCGGTTTTCCCGGTAATCCGTATTTGGG (site CCCTTCCCTCC)	0.00574
CCCTTCTCATGGACCGGTTTTCCCGGTAATCCGTATTTGGG (site CCCTTCGCTCC)	0.0128
CCCTTCTCATGGACCGGTTTTCCCGGTAATCCGTATTTGGG (site CCCTTCTCTAC)	0
CCCTTCTCATGGACCGGTTTTCCCGGTAATCCGTATTTGGG (site CCCTTCTCTCA)	0.0118
CCCTTCTCATGGACCGGTTTTCCCGGTAATCCGTATTTGGG (site CCCTTCTCTCC)	0.0281
CCCTTCTCATGGACCGGTTTTCCCGGTAATCCGTATTTGGG (site CCCTTCTCTCG)	0.0129
CCCTTCTCATGGACCGGTTTTCCCGGTAATCCGTATTTGGG (site CCCTTCTCTCT)	0.0297
CCCTTCTCATGGACCGGTTTTCCCGGTAATCCGTATTTGGG (site CCCTTCTCTGC)	0
CCCTTCTCATGGACCGGTTTTCCCGGTAATCCGTATTTGGG (site CCCTTCTCTTC)	0.00791
CCCTTCTCATGGACCGGTTTTCCCGGTAATCCGTATTTGGG (site CCCTTGTCTCC)	0.0418
CCCTTCTCATGGACCGGTTTTCCCGGTAATCCGTATTTGGG (site CCCTTTTCTCC)	0.00608
CCCTTCTCATGGACCGGTTTTCCCGGTAATCCGTATTTGGG (site CCGTTCTCTCC)	0
CCCTTCTCATGGACCGGTTTTCCCGGTAATCCGTATTTGGG (site CCTTTCTCTCC)	0.00766
CCCTTCTCATGGACCGGTTTTCCCGGTAATCCGTATTTGGG (site CGCTTCTCTCC)	0
CCCTTCTCATGGACCGGTTTTCCCGGTAATCCGTATTTGGG (site CTCTTCTCTCC)	0.0147
CCCTTCTCATGGACCGGTTTTCCCGGTAATCCGTATTTGGG (site GCCTTCTCTCC)	0.00558
CCCTTCTCATGGACCGGTTTTCCCGGTAATCCGTATTTGGG (site TCCTTCTCTCC)	0.0111
CCCTTCTCATGGACCGGTTTTCCCGGTAATCCGTATTTGTG (site CCCTTCTCTCA)	0.583
CCCTTCTCATGGACCGGTTTTCCCGGTAATCCGTATTTGTG (site CCCTTCTCTCC)	0.0231
CCCTTCTCATGGACCGGTTTTCCCGGTAATCCGTATTTGTG (site CCCTTCTCTCG)	0.995
CCCTTCTCATGGACCGGTTTTCCCGGTAATCCGTATTTGTG (site CCCTTCTCTCT)	0.00643
CCCTTTTCATGGACCGGTTTTCCCGGTAATCCGTATTTGGG (site CCCTTATCTCC)	0.00602

Sequence	recombinant UMI read abundance (log10)
CCCTTTTCATGGACCGGTTTTCCCGGTAATCCGTATTTGGG (site CCCTTCTCTCC)	0.0124
CCCTTTTCATGGACCGGTTTTCCCGGTAATCCGTATTTGGG (site CCCTTGTCTCC)	0.0108
CCCTTTTCATGGACCGGTTTTCCCGGTAATCCGTATTTGGG (site CCCTTTTCTCC)	0
CCGAAGCCATGGACCGGTTTTCCCGGTAATCCGTATTTGGG (site ACGAAGCCTCC)	0.0168
CCGAAGCCATGGACCGGTTTTCCCGGTAATCCGTATTTGGG (site CCGAAGCCTCC)	0.0077
CCGAAGCCATGGACCGGTTTTCCCGGTAATCCGTATTTGGG (site GCGAAGCCTCC)	0.0226
CCGAAGCCATGGACCGGTTTTCCCGGTAATCCGTATTTGGG (site TCGAAGCCTCC)	0.0139
CCGAGTTCATGGACCGGTTTTCCCGGTAATCCGTATTTGTT (site CCGAGTTCTAA)	0.501
CCGCCCGCATGGACCGGTTTTCCCGGTAATCCGTATTTGTA (site CCGCCCGCTTA)	1.02
CCGGAACCATGGACCGGTTTTCCCGGTAATCCGTATTTGAT (site CAGGAACCTAT)	0
CCGGAACCATGGACCGGTTTTCCCGGTAATCCGTATTTGAT (site CCGGAACCTAT)	0
CCGGAACCATGGACCGGTTTTCCCGGTAATCCGTATTTGAT (site CGGGAACCTAT)	0
CCGGAACCATGGACCGGTTTTCCCGGTAATCCGTATTTGAT (site CTGGAACCTAT)	0.00208
CCGGGACCATGGACCGGTTTTCCCGGTAATCCGTATTTGAG (site CCGGGACCTCT)	0
CCGGGCCCATGGACCGGTTTTCCCGGTAATCCGTATTTGTA (site CCGGGCCCTTA)	0.0269
CCGTAATCATGGACCGGTTTTCCCGGTAATCCGTATTTGCG (site CCGTAATCTCG)	1.7
CCGTATACATGGACCGGTTTTCCCGGTAATCCGTATTTGAT (site CCGTATACTAT)	0.449
CCGTCATCATGGACCGGTTTTCCCGGTAATCCGTATTTGAT (site CCGTCATCTAT)	0.00671
CCGTCTGCATGGACCGGTTTTCCCGGTAATCCGTATTTGCT (site CCGTCTGCTAG)	0.241
CCGTGTACATGGACCGGTTTTCCCGGTAATCCGTATTTGCT (site CCGTATACTAG)	0.0403
CCGTGTACATGGACCGGTTTTCCCGGTAATCCGTATTTGCT (site CCGTCTACTAG)	0.00869
CCGTGTACATGGACCGGTTTTCCCGGTAATCCGTATTTGCT (site CCGTGTACTAG)	0.439
CCGTGTACATGGACCGGTTTTCCCGGTAATCCGTATTTGCT (site CCGTTTACTAG)	0
CCGTGTGCATGGACCGGTTTTCCCGGTAATCCGTATTTGAC (site CCGTGTGCTGT)	1
CCGTTAACATGGACCGGTTTTCCCGGTAATCCGTATTTGTG (site CCGTTAACTCA)	0.0455

Sequence	recombinant UMI read abundance (log10)
CCGTTAACATGGACCGGTTTTCCCGGTAATCCGTATTTGTG (site CCGTTACCTCA)	0.0226
CCGTTAACATGGACCGGTTTTCCCGGTAATCCGTATTTGTG (site CCGTTAGCTCA)	0.182
CCGTTAACATGGACCGGTTTTCCCGGTAATCCGTATTTGTG (site CCGTTATCTCA)	0.00955
CCGTTAGCATGGACCGGTTTTCCCGGTAATCCGTATTTGGG (site CCGTTAGCTCA)	0.0109
CCGTTAGCATGGACCGGTTTTCCCGGTAATCCGTATTTGGG (site CCGTTAGCTCC)	0.00956
CCGTTAGCATGGACCGGTTTTCCCGGTAATCCGTATTTGGG (site CCGTTAGCTCG)	0
CCGTTAGCATGGACCGGTTTTCCCGGTAATCCGTATTTGGG (site CCGTTAGCTCT)	0
CCGTTTACATGGACCGGTTTTCCCGGTAATCCGTATTTGCT (site ACGTTTACTAG)	0
CCGTTTACATGGACCGGTTTTCCCGGTAATCCGTATTTGCT (site CAGTTTACTAG)	0
CCGTTTACATGGACCGGTTTTCCCGGTAATCCGTATTTGCT (site CCATTTACTAG)	0
CCGTTTACATGGACCGGTTTTCCCGGTAATCCGTATTTGCT (site CCCTTTACTAG)	0
CCGTTTACATGGACCGGTTTTCCCGGTAATCCGTATTTGCT (site CCGATTACTAG)	0
CCGTTTACATGGACCGGTTTTCCCGGTAATCCGTATTTGCT (site CCGCTTACTAG)	0
CCGTTTACATGGACCGGTTTTCCCGGTAATCCGTATTTGCT (site CCGGTTACTAG)	0
CCGTTTACATGGACCGGTTTTCCCGGTAATCCGTATTTGCT (site CCGTATACTAG)	0
CCGTTTACATGGACCGGTTTTCCCGGTAATCCGTATTTGCT (site CCGTCTACTAG)	0
CCGTTTACATGGACCGGTTTTCCCGGTAATCCGTATTTGCT (site CCGTGTACTAG)	0
CCGTTTACATGGACCGGTTTTCCCGGTAATCCGTATTTGCT (site CCGTTAACTAG)	0
CCGTTTACATGGACCGGTTTTCCCGGTAATCCGTATTTGCT (site CCGTTCACTAG)	0.00422
CCGTTTACATGGACCGGTTTTCCCGGTAATCCGTATTTGCT (site CCGTTGACTAG)	0
CCGTTTACATGGACCGGTTTTCCCGGTAATCCGTATTTGCT (site CCGTTTACTAA)	0
CCGTTTACATGGACCGGTTTTCCCGGTAATCCGTATTTGCT (site CCGTTTACTAC)	0
CCGTTTACATGGACCGGTTTTCCCGGTAATCCGTATTTGCT (site CCGTTTACTAG)	0
CCGTTTACATGGACCGGTTTTCCCGGTAATCCGTATTTGCT (site CCGTTTACTAT)	0
CCGTTTACATGGACCGGTTTTCCCGGTAATCCGTATTTGCT (site CCGTTTACTCG)	0
